Results published in patent US10597388B2, “Pyridazinone herbicides” (FMC CORPORATION, priority 2014, dated 2020).
Like-named read-outs stand apart in the source and are kept apart here. Blank lines part the entries; values can stand above or below the compound they belong to.

Legend:
[1] = system: wheat (Triticum aestivum); assay: Test A greenhouse herbicide test, pre- and postemergence; format: in vivo; details: Triticum aestivum, 240 h, 1000 g ai/ha, 0 to 100 scale
Method in brief: (§1)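 Visual injury ratings, 0 (no effect) to 100 (complete control), versus untreated plants after roughly 10 d in a greenhouse. Compounds, formulated in a surfactant-containing non-phytotoxic solvent, were sprayed on loam–sand soil after sowing (pre) or on one- to two-leaf plants 2–10 cm tall (post).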

[2] = system: pigweed (Amaranthus retroflexus); assay: as above; format: in vivo; details: Amaranthus retroflexus, 240 h, 1000 g ai/ha, 0 to 100 scale
Method in brief: as §1

[3] = system: foxtail, giant (giant foxtail, Setaria faberii); assay: as above; format: in vivo; details: Setaria faberi, 240 h, 1000 g ai/ha, 0 to 100 scale
Method in brief: as §1

[4] = system: momingglory (Ipomoea spp.); assay: as above; format: in vivo; details: 240 h, 1000 g ai/ha, 0 to 100 scale
Method in brief: as §1

[5] = system: velvetleaf (Abutilon theophrasti); assay: as above; format: in vivo; details: 240 h, 1000 g ai/ha, 0 to 100 scale
Method in brief: as §1

[6] = system: barnyardgrass (Echinochloa crus-galli); assay: as above; format: in vivo; details: Echinochloa crus-galli, 240 h, 1000 g ai/ha, 0 to 100 scale
Method in brief: as §1

[7] = system: corn (Zea mays); assay: as above; format: in vivo; details: Zea mays, 240 h, 1000 g ai/ha, 0 to 100 scale; for plant injury at 1000 g/ha: post-emergence, Postemergence, 0 is no effect, 100 is complete control, read-out: Corn plant response rating; for Corn plant response rating (crop injury, 0 = no effect, 100 = complete kill) at 1000 g/ha: pre-emergence, Preemergence, 100 complete control
Method in brief: as §1

[8] = system: crabgrass, large (large crabgrass, Digitaria sanguinalis); assay: as above; format: in vivo; details: 240 h, 1000 g ai/ha, 0 to 100 scale
Method in brief: as §1

[9] = system: rice (Oryza sativa); assay: Test B flooded paddy test; format: in vivo; details: Oryza sativa, 360 h; 250 g ai/ha, Flood; visual rating on scale of 0 to 100 where 0 is no effect and 100 is complete control; 13 to 15 d after treatment; read-out: Plant response rating, Rice
Method in brief: (§2)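 Ratings use a 0-100 visual scale, where 100 is complete control, and compare treated plants with controls after 13 to 15 d of greenhouse growth. Compound went straight into paddy water kept 3 cm over the soil surface, applied to seedlings at the 2-leaf stage.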

[10] = system: ducksalad (Heteranthera limosa); assay: Test B flooded paddy test; format: in vivo; details: Heteranthera limosa, 360 h; 250 g ai/ha, Flood; visual rating on scale of 0 to 100 where 0 is no effect and 100 is complete control; 13 to 15 d after treatment; read-out: Plant response rating, Ducksalad
Method in brief: as §2

[11] = system: sedge, umbrella (small-flower umbrella sedge, Cyperus difformis); assay: Test B flooded paddy test; format: in vivo; details: Cyperus difformis, 360 h; 250 g ai/ha, Flood; visual rating on scale of 0 to 100 where 0 is no effect and 100 is complete control; 13 to 15 d after treatment; read-out: Plant response rating, Sedge, Umbrella
Method in brief: as §2

[12] = system: barnyardgrass (Echinochloa crus-galli); assay: Test B flooded paddy test; format: in vivo; details: Echinochloa crus-galli, 360 h; 250 g ai/ha, Flood; visual rating on scale of 0 to 100 where 0 is no effect and 100 is complete control; 13 to 15 d after treatment; read-out: Plant response rating, Barnyardgrass
Method in brief: as §2

[13] = system: SETVI, giant foxtail (Setaria faberii); assay: Test F mixtures with commercial herbicides, Post- or Pre-emergence; format: in vivo
Procedure: (§3) This test evaluated the effect of mixtures of Compound 1 or Compound 2 with various commercial herbicides on multiple plant species. Seeds of multiple plant species selected were planted into Sandy Loam soil and treated either Post-emergence or Pre-emergence with test chemicals formulated in a non-phytotoxic solvent mixture. Plants were grown in a greenhouse using supplemental lighting to maintain a photoperiod of approximately 16 h; daytime and nighttime temperatures were approximately 24-30 and 19-21° C., respectively. Balanced fertilizer was applied through the watering system. Treated plants and controls were maintained in a greenhouse for 20 d, after which time all species were compared to controls and visually evaluated. Plant response ratings summarized in Tables F1 through F4 and are based on a scale of 0 to 100 where 0 is no effect and 100 is complete control. A dash (-) response means no test result. Application rates (i.e. “Rate”) are expressed in grams of active ingredient per hectare (g a.i./ha). In the following tables KCHSC is kochia (Kochia scoparia), LOLMU in Italian Ryegrass (Lolium multiflorum), AMBEL is common ragweed (Ambrosia elatior), ECHCG is barnyardgrass (Echinochloa crus-galli), SETVI is giant foxtail (Setaria faberii), AMARE is redroot pigweed (Amaranthus retroflexus), ALOMY is blackgrass (Alopecurus myosuroides) and GALAP is galium (Galium aparine). “Obsd.” is observed effect. “Exp.” is expected effect calculated from Colby's Equation.
(§4) Colby's Equation was used to determine the herbicidal effects expected from the mixtures. Colby's Equation (Colby, S. R. “Calculating Synergistic and Antagonistic Responses of Herbicide Combinations,” Weeds, 15(1), pp 20-22 (1967)) calculates the expected additive effect of herbicidal mixtures, and for two active ingredients is of the form: Pa+b=Pa+Pb−(PaPb/100)
(§5) wherein Pa+b is the percentage effect of the mixture expected from additive contribution of the individual components:
(§6) Pa is the observed percentage effect of the first active ingredient at the same use rate as in the mixture, and
(§7) Pb is the observed percentage effect of the second active ingredient at the same use rate as in the mixture.

[14] = system: AMBEL, common ragweed (Ambrosia elatior); assay: as above; format: in vivo
Procedure: as §3, §4, §5, §6, §7

[15] = system: ECHCG, barnyardgrass (Echinochloa crus-galli); assay: as above; format: in vivo
Procedure: as §3, §4, §5, §6, §7

[16] = system: AMARE, redroot pigweed (Amaranthus retroflexus); assay: as above; format: in vivo
Procedure: as §3, §4, §5, §6, §7

[17] = system: LOLMU, Italian Ryegrass (Lolium multiflorum); assay: as above; format: in vivo
Procedure: as §3, §4, §5, §6, §7

[18] = system: GALAP, galium (Galium aparine); assay: as above; format: in vivo; details: Post-emergence, scale 0-100
Procedure: as §3, §4, §5, §6, §7

[19] = system: KCHSC, kochia (Kochia scoparia); assay: as above; format: in vivo
Procedure: as §3, §4, §5, §6, §7

[20] = system: ALOMY, blackgrass (Alopecurus myosuroides); assay: as above; format: in vivo; details: Post-emergence, scale 0-100
Procedure: as §3, §4, §5, §6, §7

[21] = post-emergence, Postemergence, 0 is no effect, 100 is complete control, read-out: Wheat plant response rating
[22] = pre-emergence, Preemergence, 0 no effect, 100 complete control, read-out: Plant response rating, Wheat
[23] = post-emergence, Postemergence, 0 is no effect, 100 is complete control, read-out: Pigweed plant response rating
[24] = pre-emergence, Preemergence, 0 no effect, 100 complete control, read-out: Plant response rating, Pigweed
[25] = post-emergence, Postemergence, 0 is no effect, 100 is complete control, read-out: Foxtail, Giant plant response rating
[26] = pre-emergence, Preemergence, 0 no effect, 100 complete control, read-out: Plant response rating, Foxtail, Giant
[27] = post-emergence, Postemergence, 0 is no effect, 100 is complete control, read-out: Morningglory plant response rating
[28] = pre-emergence, Preemergence, 0 no effect, 100 complete control, read-out: Plant response rating, Morningglory
[29] = post-emergence, Postemergence, 0 is no effect, 100 is complete control, read-out: Velvetleaf plant response rating
[30] = pre-emergence, Preemergence, 0 no effect, 100 complete control, read-out: Plant response rating, Velvetleaf
[31] = post-emergence, Postemergence, 0 is no effect, 100 is complete control, read-out: Barnyardgrass plant response rating
[32] = pre-emergence, Preemergence, 0 no effect, 100 complete control, read-out: Plant response rating, Barnyardgrass
[33] = post-emergence, Postemergence, 0 is no effect, 100 is complete control, read-out: Crabgrass, Large plant response rating
[34] = pre-emergence, Preemergence, 0 no effect, 100 complete control, read-out: Plant response rating, Crabgrass, Large
[35] = Pre-emergence, Rate 62 g a.i./ha, scale 0-100
[36] = Table F3, Post-emergence, Rate 62 g a.i./ha, scale 0-100
[37] = Post-emergence, Rate 4 g a.i./ha, scale 0-100
[38] = Post-emergence, Rate 16 g a.i./ha, scale 0-100
[39] = Pre-emergence, Rate 4 g a.i./ha, applied alone, 20 d, scale 0 to 100
[40] = Pre-emergence, Rate 16 g a.i./ha, applied alone, 20 d, scale 0 to 100

melting point: 224 to 227 °C
SMILES: Cc1cc(C)c2c(-c3c(O)c(C)nn(C)c3=O)c(C)sc2c1 [Compound 3, 5-hydroxy-2,6-dimethyl-4-(2,4,6-trimethylbenzo[b]thien-3-yl)-3(2H)-pyridazinone]
plant injury at 1000 g/ha [1, 21]: 0%
plant injury at 1000 g/ha [1, 22]: 0%
pest or weed control at 1000 g/ha [2, 23]: 0%
pest or weed control at 1000 g/ha [2, 24]: 0%
pest or weed control at 1000 g/ha [3, 25]: 10%
pest or weed control at 1000 g/ha [3, 26]: 60%
pest or weed control at 1000 g/ha [4, 27]: 90%
pest or weed control at 1000 g/ha [4, 28]: 80%
pest or weed control at 1000 g/ha [5, 29]: 70%
pest or weed control at 1000 g/ha [5, 30]: 70%
pest or weed control at 1000 g/ha [6, 31]: 50%
pest or weed control at 1000 g/ha [6, 32]: 80%
plant injury at 1000 g/ha [7]: 0%
Corn plant response rating (crop injury, 0 = no effect, 100 = complete kill) at 1000 g/ha [7]: 0%
pest or weed control at 1000 g/ha [8, 33]: 10%
pest or weed control at 1000 g/ha [8, 34]: 80%
plant injury at 250 g/ha [9]: 0%
pest or weed control at 250 g/ha [10]: 20%
pest or weed control at 250 g/ha [11]: 0%
pest or weed control at 250 g/ha [12]: 0%

SMILES: Cc1ccc2oc(C)c(-c3c(O)c(C)nn(C)c3=O)c2c1 [Compound 7, 4-(2,5-dimethyl-3-benzofuranyl)-5-hydroxy-2,6-dimethyl-3(2H)-pyridazinone]
plant injury at 1000 g/ha [1, 21]: 20%
plant injury at 1000 g/ha [1, 22]: 0%
pest or weed control at 1000 g/ha [2, 23]: 100%
pest or weed control at 1000 g/ha [2, 24]: 100%
pest or weed control at 1000 g/ha [3, 25]: 90%
pest or weed control at 1000 g/ha [3, 26]: 90%
pest or weed control at 1000 g/ha [4, 27]: 100%
pest or weed control at 1000 g/ha [4, 28]: 80%
pest or weed control at 1000 g/ha [5, 29]: 100%
pest or weed control at 1000 g/ha [5, 30]: 80%
pest or weed control at 1000 g/ha [6, 31]: 90%
pest or weed control at 1000 g/ha [6, 32]: 100%
plant injury at 1000 g/ha [7]: 10%
Corn plant response rating (crop injury, 0 = no effect, 100 = complete kill) at 1000 g/ha [7]: 30%
pest or weed control at 1000 g/ha [8, 33]: 50%
pest or weed control at 1000 g/ha [8, 34]: 90%
plant injury at 250 g/ha [9]: 0%
pest or weed control at 250 g/ha [10]: 60%
pest or weed control at 250 g/ha [11]: 60%
pest or weed control at 250 g/ha [12]: 20%

SMILES: CCNc1nc(Cl)nc(NC(C)C)n1 [atrazine]
SETVI Obsd. [13, 35]: 5
SETVI Obsd. [13, 36]: 5
AMBEL Obsd. [14, 35]: 10
AMBEL Obsd. [14, 36]: 10
ECHCG Obsd. [15, 35]: 0
ECHCG Obsd. [15, 36]: 20
AMARE Obsd. [16, 35]: 85
AMARE Obsd. [16, 36]: 75
LOLMU Obsd. [17, 35]: 100
LOLMU Obsd. [17, 36]: 15
GALAP Obsd. ([18]; Table F3, Rate 62 g a.i./ha): 50
KCHSC Obsd. [19, 35]: 100
KCHSC Obsd. [19, 36]: 100
ALOMY Obsd. ([20]; Table F3, Rate 62 g a.i./ha): 60

SMILES: CS(=O)(=O)c1ccc(C(=O)C2C(=O)CCCC2=O)c([N+](=O)[O-])c1 [mesotrione]
SETVI Obsd. [13, 37]: 0.0
SETVI Obsd. [13, 38]: 0.0
SETVI Obsd. [13, 39]: 0
SETVI Obsd. [13, 40]: 0
AMBEL Obsd. [14, 37]: 0.0
AMBEL Obsd. [14, 38]: 75.0
AMBEL Obsd. [14, 39]: 0
AMBEL Obsd. [14, 40]: 30
ECHCG Obsd. [15, 37]: 0.0
ECHCG Obsd. [15, 38]: 20.0
ECHCG Obsd. [15, 39]: 0
ECHCG Obsd. [15, 40]: 0
AMARE Obsd. [16, 37]: 0.0
AMARE Obsd. [16, 38]: 30.0
AMARE Obsd. [16, 39]: 0
AMARE Obsd. [16, 40]: 20
LOLMU Obsd. [17, 37]: 0.0
LOLMU Obsd. [17, 38]: 0.0
LOLMU Obsd. [17, 39]: 0
LOLMU Obsd. [17, 40]: 0
GALAP Obsd. ([18]; Rate 4 g a.i./ha): 0.0
GALAP Obsd. ([18]; Rate 16 g a.i./ha): 35.0
KCHSC Obsd. [19, 37]: 0.0
KCHSC Obsd. [19, 38]: 90.0
KCHSC Obsd. [19, 39]: 0
KCHSC Obsd. [19, 40]: 50
ALOMY Obsd. ([20]; Rate 4 g a.i./ha): 0.0
ALOMY Obsd. ([20]; Rate 16 g a.i./ha): 0.0
